# Results reported in EP4748842A1, “CAMPTOTHECIN COMPOUND, ANTIBODY DRUG CONJUGATE, AND PREPARATION METHOD THEREFOR AND USE THEREOF” (Shanghai Pharmaceuticals Holding Co., Ltd., priority 2023, dated 2025).
# Like-named read-outs stand apart in the source and are kept apart here.
# Legend:
# Test in all cases: CTG assay, effect on proliferation ability of tumor cells
# Type in all cases: cell-based, human
# Calu-3 = settings: Calu-3, 168 h, read-out: IC50 (nM) Calu-3
# Procedure: (§1) Test method for the effect of camptothecin on the proliferation ability of tumor cells: The effect of camptothecin derivatives K1, K2, K3, K4, K5, K6, K7, K8, and K9 on the proliferation ability of tumor cells was tested using the CTG assay. Test cells (see Table 1) were digested, resuspended, and counted. The supernatant was removed by centrifugation, and the cell density was adjusted. Cell counting was performed with a cell counter: 20 µl of the cell suspension was aspirated, mixed with 20 µl of trypan blue, and 20 µl of the mixture was taken for cell counting. Cells were seeded into 96-well cell culture plates respectively, with 180 µl added to each well, and 1000 cells were plated per well. The plate was tapped gently to mix, and then placed in a 37°C cell incubator for incubation for 16 hours. Compounds were diluted with McCoy's 5A medium, and 20 µl was added to each well to achieve a maximum concentration of 100 nM, followed by 3-fold serial dilution with 10 concentration points. DMSO was used as the vehicle control, and 20 µl of McCoy's 5A medium was added to the blank control. The plate was tapped gently to mix, and then placed in a 37°C cell incubator for incubation for 7 days. After 7 days of incubation, the cell plate was taken out of the incubator, the culture medium was aspirated, 20 µl of culture medium was added to each well, and then 20 µl of CTG was added to each well. The plate was shaken on a shaker for 5 min and incubated at room temperature for 10 min. Then, 30 µl of the reaction solution was transferred to a Viewplate-96 white microplate (transparent bottom), and data analysis was performed on an EnVision microplate reader. [formula] Table 1. Overview of cell lines used in this screening
# NCI-N87 = settings: NCI-N87, 168 h, read-out: IC50 (nM) NCI-N87
# Procedure: as §1
# HCT-116 = settings: HCT-116, 168 h, read-out: IC50 (nM) HCT-116
# Procedure: as §1
# [1] = human lung adenocarcinoma cells, 7 days incubation, CTG
# [2] = human gastric cancer cells, 7 days incubation, CTG
# [3] = human colon cancer cells, 7 days incubation, CTG
SMILES,IC50 (Calu-3; [1]),IC50 (NCI-N87; [2]),IC50 (HCT-116; [3]),IC50 (Calu-3; Homo sapiens),IC50 (NCI-N87; Homo sapiens),IC50 (HCT-116; Homo sapiens)
CC[C@@]1(O)C(=O)OCc2c1cc1n(c2=O)Cc2c-1nc1cc(F)c(C)cc1c2-c1cn(CCCO)nn1 [Compound K2],0.29 nM,2.21 nM,0.89 nM,–,–,–
CC[C@@]1(O)C(=O)OCc2c1cc1n(c2=O)Cc2c-1nc1cc(F)c(C)cc1c2-c1ccn(CCO)n1 [Compound K7],1.13 nM,5.34 nM,2.24 nM,–,–,–
CC[C@@]1(O)C(=O)OCc2c1cc1n(c2=O)Cc2c-1nc1cc(F)c(C)cc1c2-c1cnn(CCCO)c1 [Compound K5],0.18 nM,2.07 nM,0.35 nM,–,–,–
CC[C@@]1(O)C(=O)OCc2c1cc1n(c2=O)Cc2c-1nc1cc(F)c(C)cc1c2-c1cnn(CCCCO)c1 [Compound K6],0.28 nM,2.88 nM,0.78 nM,–,–,–
CC[C@@]1(O)C(=O)OCc2c1cc1n(c2=O)Cc2c-1nc1cc(F)c(C)cc1c2-c1ccn(CCCO)n1 [Compound K8],1.24 nM,6.76 nM,3.21 nM,–,–,–
CC[C@@]1(O)C(=O)OCc2c1cc1n(c2=O)Cc2c-1nc1cc(F)c(C)cc1c2-c1cn(CCO)nn1 [Compound K1],–,–,–,0.22 nM,1.89 nM,0.77 nM
CC[C@@]1(O)C(=O)OCc2c1cc1n(c2=O)Cc2c-1nc1cc(F)c(C)cc1c2-c1ccn(CCCCO)n1 [Compound K9],1.89 nM,7.82 nM,3.87 nM,–,–,–
CC[C@@]1(O)C(=O)OCc2c1cc1n(c2=O)Cc2c-1nc1cc(F)c(C)cc1c2-c1cnn(CCO)c1 [Compound K4],–,–,–,0.15 nM,1.72 nM,0.42 nM
CC[C@@]1(O)C(=O)OCc2c1cc1n(c2=O)Cc2c-1nc1cc(F)c(C)cc1c2-c1cn(CCCCO)nn1 [Compound K3],0.43 nM,3.11 nM,1.36 nM,–,–,–
